SMILES strings stand for the structures. Values joined by “and” are separate entries in the source; they are usually repeats but may differ in a detail not shown here. Equal entries are not always repeated.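 Cells were grown in 96-well plates and exposed to each compound for 48 hours at five concentrations; endpoints were interpolated linearly between bracketing concentrations, or set to the highest concentration if not reached. GI50: concentration for 50% inhibition of growth. TGI: concentration producing complete growth inhibition.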 Where only a bound is given, the exact number is not on record here.

Some test systems named below: DMS 114 small cell lung; HCT-15 colon; SF-539 CNS; SK-MEL-5 melanoma; OVCAR-8 ovarian; A549 NSCLC; LXFL 529 NSCLC; SNB-19 CNS; BT-549 breast; PC-3 prostate.
Test in all cases: NCI-60 cell line screen, 48 h

Consider `O=C(O)CSc1n[nH]c(-c2ccccc2O)n1`, for which the TGI in the assay with DMS 114 small cell lung, with HCT-15 colon, with SF-539 CNS, in the assay on SK-MEL-5 melanoma, in the assay with OVCAR-8 ovarian and with A549 NSCLC was above 100 µM each time. The TGI in the assay with LXFL 529 NSCLC and in the assay on SNB-19 CNS was above 100 µM each time.
Turning to `O=c1c2cccnc2ncn1CCN1CCCCC1`, the TGI in the assay with DMS 114 small cell lung, in the assay with SF-539 CNS, in the assay with SK-MEL-5 melanoma, in the assay with OVCAR-8 ovarian, in the assay with A549 NSCLC and in the assay with LXFL 529 NSCLC was above 100 µM in each case. In the assay with SNB-19 CNS, this compound gave a TGI above 100 µM.
Turning to `C[C@@]1(O)CC[C@]2(C)C3CCCC3[C@H]12` (some centres undefined), the TGI in the assay on DMS 114 small cell lung, in the assay with HCT-15 colon, in the assay with SF-539 CNS, in the assay on SK-MEL-5 melanoma, in the assay with OVCAR-8 ovarian and in the assay with A549 NSCLC was above 100 µM throughout. Also, the TGI with LXFL 529 NSCLC and with SNB-19 CNS was above 100 µM in each case.
As to `O=C1OCC2=C1C(c1cccc(Br)c1)c1cc3c(cc1N2CCO)OCCO3` (centres undefined), the GI50 in the assay on HCT-15 colon was 0.0766 µM; in the assay on SF-539 CNS, 0.051 µM; in the assay on BT-549 breast, 0.136 µM; with SK-MEL-5 melanoma, 0.0348 µM; in the assay with OVCAR-8 ovarian, 0.12 µM; in the assay with A549 NSCLC it was 0.131 µM. Moreover, the GI50 with SNB-19 CNS is 0.0846 µM; in the assay with PC-3 prostate it was 0.0546 µM. Also, the TGI in the assay with HCT-15 colon was above 50 µM; in the assay on SF-539 CNS, 0.46 µM; in the assay on BT-549 breast, 6.35 µM; in the assay with SK-MEL-5 melanoma, 0.252 µM; in the assay with OVCAR-8 ovarian it was 1.54 µM; with A549 NSCLC, 5.97 µM. Further, the TGI in the assay with SNB-19 CNS was above 50 µM; in the assay on PC-3 prostate, 8.74 µM.
Turning to `Cc1[cH-]c(=O)n(-c2ccccc2)n1.[Au+].[Au].c1ccc([PH+](c2ccccc2)c2ccccc2)cc1.c1ccc([PH+](c2ccccc2)c2ccccc2)cc1`, the GI50 is 2.81 µM in the assay on DMS 114 small cell lung; 11.8 µM with HCT-15 colon; 2.38 µM and 10.4 µM in the assay on SF-539 CNS; 16.8 µM in the assay with SK-MEL-5 melanoma; 14.6 µM in the assay with OVCAR-8 ovarian; 46.8 µM in the assay on A549 NSCLC. Further, the GI50 with LXFL 529 NSCLC was 0.488 µM and 1.09 µM; in the assay on SNB-19 CNS, 12.5 µM. The TGI in the assay with DMS 114 small cell lung was 11.6 µM; in the assay on HCT-15 colon, 29.3 µM; in the assay with SF-539 CNS it was 33.4 µM; in the assay with SK-MEL-5 melanoma, 36.2 µM; with OVCAR-8 ovarian it was 41.5 µM; in the assay on A549 NSCLC, above 100 µM. For the same compound, the TGI was 2.38 µM and 3.55 µM with LXFL 529 NSCLC; 32.7 µM in the assay on SNB-19 CNS.
Consider `COc1ccc(C(c2cc(OC)c(OC)c(OC)c2)n2cncn2)cc1O` (centres undefined), for which the GI50 was 0.438 µM with HCT-15 colon; 0.3 µM in the assay on SF-539 CNS; 0.618 µM in the assay with BT-549 breast; 0.44 µM with SK-MEL-5 melanoma; 1.14 µM in the assay with OVCAR-8 ovarian; 0.969 µM with A549 NSCLC. Moreover, the GI50 is 0.578 µM with SNB-19 CNS and 0.431 µM with PC-3 prostate. The TGI in the assay on HCT-15 colon is above 100 µM; in the assay with SF-539 CNS, 1.11 µM; with BT-549 breast, above 100 µM; with SK-MEL-5 melanoma, 38.3 µM; in the assay with OVCAR-8 ovarian, above 100 µM; in the assay with A549 NSCLC, above 100 µM. In addition, the TGI in the assay with SNB-19 CNS and with PC-3 prostate was above 100 µM throughout.
Take `NCCNCCNCCN`: the GI50 in the assay on HCT-15 colon, with SF-539 CNS, in the assay with BT-549 breast, with SK-MEL-5 melanoma, in the assay with OVCAR-8 ovarian and in the assay with A549 NSCLC was above 100 µM in each case. In addition, the GI50 in the assay on SNB-19 CNS and in the assay on PC-3 prostate was above 100 µM in each case. The TGI in the assay on HCT-15 colon, with SF-539 CNS, in the assay on BT-549 breast, with SK-MEL-5 melanoma, in the assay on OVCAR-8 ovarian and with A549 NSCLC was above 100 µM each time. Further, the TGI in the assay on SNB-19 CNS and with PC-3 prostate was above 100 µM in each case.
Turning to `COC(=O)/C=C/c1cc(OC(C)=O)c2c(c1)[C@@H](C(=O)OC)[C@H](c1ccc(OC(C)=O)c(OC(C)=O)c1)O2`, the GI50 is 0.0421 µM in the assay on HCT-15 colon; 0.0344 µM in the assay on SF-539 CNS; 0.219 µM in the assay on BT-549 breast; 0.0493 µM in the assay with SK-MEL-5 melanoma; 0.0795 µM in the assay on OVCAR-8 ovarian; 0.248 µM in the assay on A549 NSCLC. In addition, the GI50 was 0.431 µM in the assay with SNB-19 CNS and 0.316 µM in the assay with PC-3 prostate. The TGI with HCT-15 colon is above 100 µM; in the assay on SF-539 CNS it was 0.305 µM; with BT-549 breast, 32.9 µM; with SK-MEL-5 melanoma, 2.34 µM; in the assay on OVCAR-8 ovarian, above 88.3 µM; in the assay with A549 NSCLC, above 78.8 µM. Besides, the TGI in the assay on SNB-19 CNS is above 100 µM; in the assay with PC-3 prostate, 54.7 µM.
Turning to `C=C(C)C(=O)O[C@@H]1C[C@@]2(C)O[C@@H]2C[C@H](O)/C(C)=C/[C@H]2OC(=O)C(=C)[C@@H]21`, the TGI with HCT-15 colon, in the assay on SF-539 CNS, in the assay on BT-549 breast, in the assay on SK-MEL-5 melanoma, in the assay with OVCAR-8 ovarian and in the assay with A549 NSCLC was above 100 µM each time. Besides, the TGI in the assay with SNB-19 CNS and in the assay with PC-3 prostate was above 100 µM each time.
Regarding `CN(C)c1ccc(/C=N/NC(=S)Nc2ccccc2)cc1`, the TGI in the assay with HCT-15 colon, with SF-539 CNS, in the assay on BT-549 breast, in the assay on SK-MEL-5 melanoma, with OVCAR-8 ovarian and in the assay with A549 NSCLC was above 100 µM throughout. Moreover, the TGI in the assay on SNB-19 CNS and in the assay with PC-3 prostate was above 100 µM each time.
Regarding `CCOC(=O)C1Sc2ccccc2N=C1C` (centres undefined), the TGI with DMS 114 small cell lung, in the assay with HCT-15 colon, with SF-539 CNS, in the assay on OVCAR-8 ovarian, in the assay with A549 NSCLC and with LXFL 529 NSCLC was above 100 µM throughout. In the assay with SNB-19 CNS, this compound gave a TGI above 100 µM.
Regarding `CCCOc1nc(N)c2cnn(C3CCCCO3)c2n1` (centres undefined), the TGI in the assay on DMS 114 small cell lung, with HCT-15 colon, in the assay on SF-539 CNS, in the assay on SK-MEL-5 melanoma, with OVCAR-8 ovarian and with A549 NSCLC was above 100 µM in each case. In addition, the TGI with LXFL 529 NSCLC and in the assay with SNB-19 CNS was above 100 µM in each case.

Source of the values: PubChem BioAssay (NCI).
